From US20250129054A1 (Terran Biosciences Inc., priority 2022, published 2025)

What was measured:
[1] = Serial tail vein bleed PK study in SD rats: methylone measured in plasma after IV or oral methylone or oral methylone prodrugs; assay type: in vivo, Sprague Dawley rats; conditions: 10 mg/kg, rat
Procedure: A pharmacokinetic (PK) study was performed in three male Sprague-Dawley (SD) rats following intravenous (IV) and oral (PO) administration of methylone at 1 mg/kg (IV) and 10 mg/kg (PO) respectively, or test compounds (prodrugs of methylone) at 10 mg/kg (PO). Parent compound (methylone) was measured in plasma.
Samples were sent for method optimization and measurement of parent compound (methylone) via unique calibration lines and following acceptance QC's. Dose formulation concentrations were also measured, and PK parameters were determined (Cmax (ng/mL), Tmax (hr), Cl (ml/min/kg), Vdss (L/kg), t½(hr), AUC0-t (ng/mL*hr), AUC0-inf (ng/mL*hr), MIRT (hr), Bioavailability ([…]) where warranted) using WinNon Lin software. Data (including bioanalytical results and assay performance) were reported in a tabulated format.
Formulation for PO Administration: For PO dosing, the prodrug was formulated in 10% DMSO/20% PEG400/70% water to a concentration of 2 mg free metabolite material/mL. This provided a dose of 10 mg free metabolite/kg when the prodrug was administered PO in 5 mL/kg dosing volumes.
Formulation for IV administration: For IV dosing, rac-methylone was formulated as solution in saline to a concentration of 0.5 mg free metabolite material/mL. This provided a dose of 1 mg free metabolite/kg when administered IV in 2 mL/kg dosing volumes.
The pharmacokinetic properties of the synthesized methylone prodrugs after oral administration in a rat model were assessed. The concentration of methylone was measured in each rat at various sampling timepoints after IV or oral administration of rac-methylone or the synthesized methylone prodrugs to rats.
Dose formulations were made at equivalent concentrations of active compound (methylone) adjusted for molecular weight of the compounds. The synthesized methylone prodrugs or analogs were dosed at 10 mg/kg oral (PO) nominal dose. Nominal doses were used in PK parameter determinations. The parent compound (methylone) was dosed at 1 mg/kg intravenous (IV) and 10 mg/kg (PO).

[2] = tested on: rat elevated zero maze model of anxiety; test: Rat elevated zero maze model of anxiety (% time on open areas, stretched attend postures); assay type: in vivo, Sprague-Dawley rats; conditions: for anxiogenic effect: across the doses tested, ip
From the text: The rat zero-maze model is a refined alternative to the plus-maze, the most widely used animal model of anxiety, and consists of an elevated annular platform, divided equally into four quadrants. Two opposite quadrants are enclosed by Perspex walls on both the inner and the outer edges of the platform, while the remaining two opposite quadrants are open being enclosed only by a Perspex “lip”. Animals will show a preference for the closed areas, and avoidance of the open sections is assumed to stem from a rodent's natural aversion to open, exposed spaces. The primary index of anxiety, which reflect changes in open arm preference, is the percentage of time spent on the open areas. A reduction in the amount of activity on the open areas is considered to reflect an increase in anxiety. Other, ethologically-based behaviours are also assessed as indices of anxiety. One of the most important is stretched attend postures (SAP) from closed to open quadrants. […] Shepherd, J K; et al., (1994) Behavioural and pharmacological validation of the elevated “zero-maze” as an animal model of anxiety. Psychopharmacol., 116:56-64.
Male Sprague-Dawley 200-250 g (Envigo UK) rats were used. Animals were group-housed (5 per cage; cage size: 40×40×20 cm) in a temperature-controlled environment (22±2° C.), under a 12 h light-dark cycle (lights on: 08:00 hours) for one week prior to testing. Food and water were freely available. Number of animals per group=5. Animals were moved into the experimental room 16-24 hours before testing.
The elevated 0-maze comprises a black Perspex annular platform (105 cm diameter, 10 cm width) elevated to 65 cm above ground level, divided equally into four quadrants. Two opposite quadrants are enclosed by clear red Perspex walls (27 cm high) on both the inner and outer edges of the platform, while the remaining two opposite quadrants are surrounded only by a Perspex “lip” (1 cm high) which serves as a tactile guide to animals on these open areas.
Subjects were weighed and tail marked before being injected. After a specified pre-treatment time, subjects were placed in a closed quadrant and a 5-min test period were recorded on videotape for subsequent analysis. The maze were cleaned with 5% methanol/water solution and dried thoroughly between test sessions. Behavioural measures comprise percentage time spent on the open areas (% TO) and frequency of stretched attend postures (SAP) from closed to open quadrants. Since the control groups were all treated identically with the same vehicle these were combined to increase power. The Chlordiazepoxide groups were also treated identically with the same dose so these were also combined to increase power. Animals are scored as being in the open area when all four paws were in an open quadrant and in the closed area only when all four paws have passed over the open-closed divide. All testing were carried out between 9.00 and 16.00 hours.
For each study, a 1-way ANOVA was conducted across vehicle, CDP, and drug treatment groups. Each group was compared to the vehicle group and a p-value for treatment determined by Fishers Least Significant Difference (LSD) test. This analysis was performed in GraphPad Prism (Version 9).
Intraperitoneal (IP): Racemic methylone HCl was formulated in Vehicle 1 (Saline) for injection to concentrations of 1, 3 and 6 mg/mL to provide doses of 5, 15 and 30 mg/kg when administered ip in 5 mL/kg dosing volumes.
Intraperitoneal (IP): S-methylone HCl was formulated in Vehicle 1 (Saline) for injection to concentrations of 0.5, 1, 1.5, 3 and 6 mg/mL to provide doses of 2.5, 5, 7.5, 15 and 30 mg/kg when administered ip in 5 mL/kg dosing volumes.
Intraperitoneal (IP): R-methylone HCl was formulated in Vehicle 1 (Saline) for injection to concentrations of 1, 3 and 6 mg/mL to provide doses of 5, 15 and 30 mg/kg when administered ip in 5 mL/kg dosing volumes. […]

[3] = tested on: post-traumatic stress disorder (PTSD); test: Double-blind, randomized, placebo-controlled clinical trial of methylone-assisted psychotherapy in PTSD; assay type: in vivo, human; conditions: at Study Conclusion; for clinician-rated functional impairment score as measured by SDS / depression as measured by HAM-D: compared to placebo-treated controls; for change in CAPS-5 assessment: with psychotherapy, compared to the placebo group, PTSD participants
Procedure: A multicenter, randomized, double-blind, placebo-controlled trial is conducted to assess the efficacy and safety of methylone-assisted psychotherapy versus psychotherapy with placebo control in participants diagnosed with at least moderate post-traumatic stress disorder (PTSD).
This multicenter, randomized, double-blind, placebo-controlled trial is conducted at various sites in the United States with IRB approval from each study site. A flexible dose of methylone hydrochloride salt or placebo, followed by a supplemental half-dose unless contraindicated by patient's previous response or medical history, is also administered during the Treatment Period with psychotherapy in at least 3 blinded monthly Experimental Sessions. The Supplemental Dose extends the duration of drug effects on the participants during an Experimental Session. Methylone test groups are further subdivided into specific groups receiving only racemic methylone hydrochloride salt, S-methylone hydrochloride salt, or R-methylone hydrochloride salt. An optional Risk Evaluation and Mitigation Strategy (REMS) Protocol may be implemented for the racemic methylone, S-methylone, and placebo-groups. The Treatment Period lasts for approximately 12 weeks. During the Treatment Period, each Experimental Session is followed by three Intervening Sessions of non-drug psychotherapy. Each Experimental Session involves an overnight stay. The Primary Outcome measure, the change in Clinician Administered PTSD Scale for DSM-5 (CAPS-5), is determined by a blinded Independent Rater (IR) pool multiple times throughout the study. The study consists of separate periods for each participant. Initially, prospective participants undergo a Screening Period involving an initial eligibility assessment, a medical history intake, informed consent, and enrollment of eligible participants. Next, a Preparation Period is undertaken for enrolled participants involving medication tapering and clinical baseline assessments to confirm each participant meets enrollment criteria. As part of the Preparation Period, a detailed assessment of co-morbidities to PTSD is recorded. Participants may remain on prescribed courses of selective serotonin reuptake inhibitor (SSRI) or serotonin and norepinephrine reuptake inhibitor (SNRI) treatment. Dosages and/or frequency of administration of a prescribed SSRI or SNRI may be adjusted to fit within study parameters. Participants may be required to taper a prescribed course of medication in order to maintain eligibility within the study. The Treatment Period consists of three monthly Experimental Sessions and associated Intervening Sessions of integrative behavioral psychotherapy. The Treatment Period lasts approximately 12 weeks. Following the Treatment Period is a Follow-up Period and Study Conclusion. During the Follow-up Period and Study Conclusion, participants complete 4 weeks with no study visits, followed by a Study Conclusion visit.
This study compares the effects of three blinded Experimental Sessions of psychotherapy in combination with flexible doses of methylone or placebo administered as described below. Non-drug preparatory and intervening psychotherapy sessions are also included. Patient's weight is determined for dosage calculation. Initial dose is 100 mg unless this will result in a dosage of less than 1.5 mg/kg of patient weight. Initial dose thereby adjusted upward in 25 mg increments to deliver the lowest dose possible of at least 1.5 mg/kg of patient weight. Initial dose for Experimental Session 2 and 3 is cumulative dose calculated by adding the initial dose plus REMS protocol dose used the previous Experimental Session for each patient.
Randomization occurs prior to the initiation of Experimental Session 1. Each participant is provided the next randomized number in a sequence by a blinded study monitor. […]

[4] = 30 mg/kg ip, 30 min pretreatment, vs vehicle and chlordiazepoxide 6 mg/kg, male SD rats
[5] = dose response over 5, 15 and 30 mg/kg ip, male SD rats
[6] = specific (sufficient) doses ip, compared with chlordiazepoxide 6 mg/kg

Structure (SMILES)	frequency of SAPs [2, 4]	time spent in the open arms [2, 4]	anxiogenic effect ([2]; male SD rats)	frequency of SAPs [2, 6]	time in the open arms [2, 6]	daytime sleepiness as measured by ESS [3]	clinician-rated functional impairment score as measured by SDS [3]	depression as measured by HAM-D [3]	change in CAPS-5 assessment [3]	other results
CC(C(=O)c1ccc2c(c1)OCO2)N(C)C(=O)C(C)(C)C (centres unmarked) [PG, N-[2-(1,3-Benzodioxol-5-yl)-1-methyl-2-oxo-ethyl]-N-2,2-trimethyl-propanamide]										Plasma Concentrations of metabolite methylone ([1]; 0.500 h after oral dosing of the prodrug, individual animals): BLQ (Below Lower Limit of Quantification (0.5 ng/mL)); Plasma Concentrations of metabolite methylone ([1]; 0.500 h after oral dosing of the prodrug, mean): BLQ (Below Lower Limit of Quantification (0.5 ng/mL)); Plasma Concentrations of metabolite methylone ([1]; 1.00 h after oral dosing of the prodrug, individual animals): BLQ (Below Lower Limit of Quantification (0.5 ng/mL)); Plasma Concentrations of metabolite methylone ([1]; 1.00 h after oral dosing of the prodrug, mean): BLQ (Below Lower Limit of Quantification (0.5 ng/mL)); Plasma Concentrations of metabolite methylone ([1]; 2.00 h after oral dosing of the prodrug, individual animals): BLQ (Below Lower Limit of Quantification (0.5 ng/mL)); Plasma Concentrations of metabolite methylone ([1]; 2.00 h after oral dosing of the prodrug, mean): BLQ (Below Lower Limit of Quantification (0.5 ng/mL)); Plasma Concentrations of metabolite methylone ([1]; 4.00 h after oral dosing of the prodrug, individual animals): BLQ (Below Lower Limit of Quantification (0.5 ng/mL)); Plasma Concentrations of metabolite methylone ([1]; 4.00 h after oral dosing of the prodrug, mean): BLQ (Below Lower Limit of Quantification (0.5 ng/mL)); Plasma Concentrations of metabolite methylone ([1]; 7.00 h after oral dosing of the prodrug, individual animals): BLQ (Below Lower Limit of Quantification (0.5 ng/mL)); Plasma Concentrations of metabolite methylone ([1]; 7.00 h after oral dosing of the prodrug, mean): BLQ (Below Lower Limit of Quantification (0.5 ng/mL)); Plasma Concentrations of metabolite methylone ([1]; 24.0 h after oral dosing of the prodrug, individual animals): BLQ (Below Lower Limit of Quantification (0.5 ng/mL)); Plasma Concentrations of metabolite methylone ([1]; 24.0 h after oral dosing of the prodrug, mean): BLQ (Below Lower Limit of Quantification (0.5 ng/mL))
CN[C@H](C)C(=O)c1ccc2c(c1)OCO2 [R-methylone]	significantly decreasing SAPs to the same level as chlordiazepoxide	as effective as chlordiazepoxide	did not show any anxiogenic effect at any dose	decreased the frequency of SAPs as effectively as the benzodiazepine chlordiazepoxide	increase time in the open arms	significant improvement in lessening daytime sleepiness	significant improvement	significant improvement	significant mean reduction	frequency of SAPs [2, 5]: dose dependent decrease in SAPs; time spent in the open arms [2, 5]: dose dependent increase in time spent in the open arms
CN[C@@H](C)C(=O)c1ccc2c(c1)OCO2 [S-methylone]	even more effective than chlordiazepoxide at reducing SAPs	the time in the open arms increased	show anxiogenic effects at lower doses	decreased the frequency of SAPs as effectively as the benzodiazepine chlordiazepoxide	increase time in the open arms	significant improvement in lessening daytime sleepiness	significant improvement	significant improvement	significant mean reduction	frequency of SAPs ([2]; 2.5 mg/kg and 5 mg/kg ip, male SD rats): dose dependent increase in SAPs; frequency of SAPs ([2]; 7.5 mg/kg, 15 mg/kg and 30 mg/kg ip, male SD rats): dose dependent decrease in SAPS; time spent in the open arms ([2]; trend over 5 mg/kg, 7.5 mg/kg and 15 mg/kg ip, male SD rats): the time spent in the open arms decreased as the dose increased
